Experimental findings from EP4796540A2, “N-SULFONAMIDE NITROGEN-CONTAINING FUSED HETEROCYCLIC COMPOUND, AND APPLICATION THEREOF” (priority 2023, dated 2025) are described below.

Read-outs that look alike come from different tables or passages of the source.

A word on the IC50: it is the concentration at which inhibition is half-maximal. A low value points to inhibition by little substance.

One data set has as its system p53 Y220C mutant. The data set can be described thus: HTRF assay: compounds promoting the binding of p53 Y220C mutant with DNA. Type of data set: biochemical. To be noted: His-tagged p53 Y220C (94-312), biotin-labeled DNA. The procedure: Homogeneous time-resolved fluorescence (HTRF) assay was used to measure the reactivation effect of compounds on the p53 Y220C mutant. The recombinant His-tagged p53 Y220C (94-312) used for HTRF assays was expressed in E. coli and purified to the purity of 90% through Ni-NTA column. The biotin-labeled DNA used for HTRF assays was synthesized by Pharmaron Inc, with the specific sequence of 5'-[…]-3' .
The binding of recombinant His-tagged p53 Y220C protein and biotin-labeled DNA was measured using fluorescence resonance energy transfer (FRET). For FRET assays, binding between p53 mutants and DNA sequences was measured by detecting the fluorescence of the interaction between an anti-His antibody (Cisbio, 61HI2KLA) conjugated to Eu and d2-conjugated streptavidin (Cisbio, 610SADLF) bound to a biotin-labeled DNA molecule. Compounds were prepared into 2 mM stock solutions and serially diluted into 10 concentrations at a 1:3 ratio in DMSO. Each 200-fold working concentration compound was sequentially diluted to 4-fold working concentration. 4 µL of compound solution was transferred line by line to a 384-well assay plate using Echo, containing 2 replicates per column. 4 µL of p53 solution was added to the assay plate. 4 µL of biotin DNA solution was added to the assay plate, and then 4 µL of assay solution (His-Eu antibody and streptavidin-d2) was added to each well of the assay plate. The assay plate was incubated overnight and protected from light. Fluorescence was read on BMG (BMG LRBTECH).
The ratio of each well was calculated (ratio_665 nm/615 nm-ratio_background). The activity % was calculated as follows: C = (Ave_Ac−Ave_Ba)/(Ave_Dc_Ave_Bd) [formula] R data = (A−Ave_Ba−C*D)/(D−Ave_Bd)*(Ave_Dc−Ave_Bd) [formula] Activity % = R data/Ave_VC*100. [formula] • A: fluorescence intensity of the sample at 665 nm; • D: fluorescence intensity of the sample at 615 nm; • Ba: fluorescence intensity of the plate background at 665 nm; • Bd: fluorescence intensity of the plate background at 615 nm; • Dc: fluorescence intensity of HIS-Eu background at 615 nm; • Ac: fluorescence intensity of streptavidin-d2 background at 665 nm; • VC: DMSO treatment group.
SC150 was calculated using Graphpad 8.0 to fit the logarithm of activity% and compound concentration to a nonlinear regression (dose response-variable slope). Table 1: Activity of compounds promoting the binding of p53 Y220C mutant with DNA
(TR-FRET usually uses a lanthanide donor and a delayed reading to cut background.)

The subject of data set [1] is CYP3A4/5. To be noted: human, microsomes, 10 min, 10 µM.
Protocol: (§1) Experimental purpose: To test the inhibitory effect of compounds on CYP isoenzymes at a single concentration. • 2. Experimental instrument and reagents:
(§2) 8.71 g of K2HPO4 was dissolved in 950 mL of water. The pH was adjusted to 7.4 with HCl solution. The mixture was adjusted to a final volume of 1000 mL with water. The buffer was filtered through a 0.45 µm filter. The buffer was stored in a refrigerator at 4°C for future use. Terfenadine/tolbutamide (1 mg/mL each) stock solutions were prepared with DMSO. The above stock solution was diluted with acetonitrile to produce a quenching solution containing 5/10 ng/mL (terfenadine/tolbutamide).
(§3) Liver microsomes were thawed in a 37°C water bath prior to use. Liver microsome working solution (final concentration of 0.5 mg/mL) was prepared. 5 mM NADPH working solution was prepared with phosphate buffered saline. The above stock solution was prepared into a 2 mM working solution with DMSO.
(§4) 238.5 µL of liver microsome working solution was added to a 1.1 mL tube. 1.5 µL of test compound/control working solution/DMSO was added and mixed well by pipetting several times. The mixture was pre-incubated in water bath with shaking at 37°C for 5 minutes. After the pre-incubation, 60 µL of NADPH working solution was added and mixed well by pipetting several times. The mixture was incubated in water bath with shaking at 37°C for 10 minutes. Immediately after incubation, 500 µL of quenching solution was added and vortexed for 1 minute. All samples were centrifuged at 4,000 rpm for 15 minutes at 4°C. 300 µL of the above supernatants were aliquoted for further LC-MS/MS analysis.
(§5) Inhibition rate (% inhibition) is calculated using metabolite formation of the test compound or the control compound compared to the matrix control.
The subject of the next data set is CYP3A4/5 enzymes. The data set can be described thus: Multi-concentration inhibitory activity curve of CYP3A4/5 enzymes, liver microsomes. Format: in vitro ADME. The following applies: substrate Midazolam; human liver microsomes; 10 min. Background: Microsomes from liver hold many membrane-bound enzymes, among them those of drug oxidation.
In data set [2] the test system is CYP3A4/5. The experiment in a line: Inhibition of CYP isoenzymes at a single concentration, liver microsomes. The following applies: final compound concentration 10 µM; substrate Midazolam; human liver microsomes.
Protocol: as §1, §2, §3, §4, §5

Protocol for CYP3A4/5 enzymes: Experimental purpose: To determine the concentration inhibitory activity curve of compounds on CYP3A4/5 enzymes. • 2.
as §2
Liver microsomes were thawed in a 37°C water bath prior to use. Liver microsome working solution (final system concentration of 0.5 mg/mL) was prepared. 5 mM NADPH working solution was prepared with phosphate buffered saline. The above stock solution was prepared into a 2 mM working solution with DMSO. The above stock solution was diluted with acetonitrile (4-fold dilution, 6 non-zero concentrations).
238.5 µL of liver microsome working solution was added to a 1.1 mL tube. 1.5 µL of test compound/control working solution/DMSO was added and mixed well by pipetting several times. The mixture was pre-incubated in water bath with shaking at 37°C for 5 minutes. […]
The half-maximal inhibitory concentration (IC50) was calculated using Graph Pad Prism.

In turn, `COc1nc(C(=O)NS(C)(=O)=O)ccc1NCC#Cc1cc2c(N[C@@H]3CCN(C)C[C@@H]3F)cccn2c1CC(F)(F)F` [Cpd-1, 5-((3-(8-(((3S,4R)-3-Fluoro-1-methylpiperidin-4-yl)amino)-3-(2,2,2-trifluoroethyl)indolizin-2-yl)prop-2-yn-1-yl)amino)-6-methoxy-N-(methylsulfonyl)picolinamide] registered an SC150 in the data set with p53 Y220C mutant of 1.0 nM.

In the data set on p53 Y220C mutant, `COc1nc(C(=O)NS(C)(=O)=O)ncc1NCC#Cc1cc2c(N[C@@H]3CCN(C)C[C@@H]3F)cccn2c1CC(F)(F)F` [Cpd-3, 5-((3-(8-(((3S,4R)-3-Fluoro-1-methylpiperidin-4-yl)amino)-3-(2,2,2-trifluoroethyl)indolizin-2-yl)prop-2-yn-1-yl)amino)-4-methoxy-N-(methylsulfonyl)pyrimidine-2-carboxamide] came in with an SC150 of 0.74 nM. In the data set on p53 Y220C mutant, `[2H]C([2H])([2H])Oc1nc(C(=O)NS(=O)(=O)C2CC2)ccc1NCC#Cc1cc2c(N[C@@H]3CCN(C)C[C@@H]3F)cccn2c1CC(F)(F)F` [Cpd-4, N-(Cyclopropylsulfonyl)-5-((3-(8-(((3S,4R)-3-fluoro-1-methylpiperidin-4-yl)amino)-3-(2,2,2-trifluoroethyl)indolizin-2-yl)prop-2-yn-1-yl)amino)-6-(methoxy-d3)picolinamide] displayed an SC150 of 0.35 nM. Regarding `[2H]C([2H])([2H])Oc1nc(C(=O)NS(=O)(=O)CC2CC2)ccc1NCC#Cc1cc2c(N[C@@H]3CCN(C)C[C@@H]3F)cccn2c1CC(F)(F)F` [Cpd-5, N-((Cyclopropylmethyl)sulfonyl)-5-((3-(8-(((3S,4R)-3-fluoro-1-methylpiperidin-4-yl)amino)-3-(2,2,2-trifluoroethyl)indolizin-2-yl)prop-2-yn-1-yl)amino)-6-(methoxy-d3)picolinamide], in the data set with p53 Y220C mutant, the SC150 worked out at 1.1 nM.

In the case of `[2H]C([2H])([2H])Oc1nc(C(=O)NS(=O)(=O)CC(F)(F)F)ccc1NCC#Cc1cc2c(N[C@@H]3CCN(C)C[C@@H]3F)cccn2c1CC(F)(F)F` [Cpd-6, 5-((3-(8-(((3S,4R)-3-Fluoro-1-methylpiperidin-4-yl)amino)-3-(2,2,2-trifluoroethyl)indolizin-2-yl)prop-2-yn-1-yl)amino)-6-(methoxy-d3)-N-((2,2,2-trifluoroethyl)sulfonyl)picolinamide], the SC150 in the data set with p53 Y220C mutant is given as 1.7 nM. In the data set on p53 Y220C mutant, `COc1nc(C(=O)NS(=O)(=O)C2CC2)ccc1NCC#Cc1cc2c(N[C@@H]3CCN(C)C[C@@H]3F)cccn2c1CC(F)(F)F` [Cpd-7, N-(Cyclopropylsulfonyl)-5-((3-(8-(((3S,4R)-3-fluoro-1-methylpiperidin-4-yl)amino)-3-(2,2,2-trifluoroethyl)indolizin-2-yl)prop-2-yn-1-yl)amino)-6-methoxypicolinamide] yielded an SC150 of 0.64 nM. `COc1cc(S(C)(=O)=O)ccc1NCC#Cc1nc2c(N[C@@H]3CCN(C)C[C@@H]3F)cccn2c1CC(F)(F)F` [Cpd-B] came in with an SC150 in the data set with p53 Y220C mutant of 15 nM. For the same compound, in the data set with CYP3A4/5 [1], the “Inhibition rate (%) CYP3A4/5 (Midazolam)” value was found to be 61% and the “Inhibition rate (%) CYP3A4/5 (Testosterone)” value was 75%. In the case of `CNC(=O)c1ccc(NCC#Cc2cc3c(N[C@@H]4CCN(C)C[C@@H]4F)cccn3c2CC(F)(F)F)c(OC)c1` [Cpd-C, 4-((3-(8-(((3S,4R)-3-Fluoro-1-methylpiperidin-4-yl)amino)-3-(2,2,2-trifluoroethyl)indolizin-2-yl)prop-2-yn-1-yl)amino)-3-methoxy-N-methylbenzamide], in the data set with p53 Y220C mutant, the SC150 is 4.6 nM. Besides, inhibition with CYP3A4/5 enzymes was half-maximal at 3.8 µM (IC50). Moreover, the “Inhibition rate (%) CYP3A4/5 (Midazolam)” value in the data set with CYP3A4/5 [2] was determined as 79%.
